Reference: patent US9771370B2, “Compounds for the inhibition of indoleamine-2,3-dioxygenase” (Merck Patent GmbH, priority 2014, dated 2017)

Biological target: Recombinant human IDO (Homo sapiens, UniProt P14902)
Experiment: Bridge-IT tryptophan fluorescence assay of human IDO-1 inhibition
Type: biochemical
Conditions: recombinant human IDO 7.5 nM, L-tryptophan
Description: Measurement of human IDO-1 inhibition is performed in 384 well format using the Bridge-IT® tryptophan Fluorescence Assay (Mediomics, LLC, St. Louis, Mo., U.S.A.).
The reaction is initiated by the addition of L-Tryptophan (Sigma) at a final concentration of 100 μM in assay buffer. After 90 minutes of incubation at 37° C., the reaction is stopped by transferring 1 μl of the reaction mixture to 9 μl of Bridge-IT assay solution A. After 30 min of incubation at 30° C., the fluorescence intensity was measured at λex=485 nm and λem=665 nm using Perkin Elmer Envision® Multilabel Reader.
Measurement of human IDO-1 inhibition was performed in 384-well format using the BRIDGE-IT® tryptophan Fluorescence Assay (Mediomics, LLC, St. Louis, Mo., U.S.A.). […] After 30 minutes of pre-incubation at 25° C., the reaction was initiated by the addition of L-Tryptophan (Sigma) at a final concentration of 50 μM in assay buffer. After 60 minutes of incubation at 25° C., the reaction is stopped by transferring 1 μl of the reaction mixture to 9 μl of Bridge-IT assay solution A. After 30 min of incubation at 30° C., the fluorescence intensity was measured at λex=485 nm and λem=665 nm using Perkin Elmer ENVISION® Multilabel Reader.

Recombinant human IDO, sequence (P14902 whole entry): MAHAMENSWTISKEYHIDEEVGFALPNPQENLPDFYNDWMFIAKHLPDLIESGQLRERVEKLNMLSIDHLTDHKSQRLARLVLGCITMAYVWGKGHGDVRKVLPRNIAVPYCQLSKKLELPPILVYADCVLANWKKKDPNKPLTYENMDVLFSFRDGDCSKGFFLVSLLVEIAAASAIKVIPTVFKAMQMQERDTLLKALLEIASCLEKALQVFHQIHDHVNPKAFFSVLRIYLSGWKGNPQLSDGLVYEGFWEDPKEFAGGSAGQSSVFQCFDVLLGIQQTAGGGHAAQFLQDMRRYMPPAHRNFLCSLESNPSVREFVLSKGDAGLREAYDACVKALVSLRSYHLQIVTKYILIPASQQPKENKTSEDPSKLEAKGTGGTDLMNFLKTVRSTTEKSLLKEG

| IC50 | SMILES |
| --- | --- |
| < 0.1 µM | Oc1cccc2c1-c1cncn1C2CCC1(F)CCCCC1 (single isomer, unassigned) [Compound 43b, 5-(2-(1-fluorocyclohexyl)ethyl)-5H-imidazo[5,1-a]isoindol-9-ol] |
| < 0.1 µM | COc1ccc2c(n1)C(CCC1(F)CCC(F)(F)CC1)n1cncc1-2 (single isomer, unassigned) [Compound 34a, 10-methoxy-7-[2-(1,4,4-trifluorocyclohexyl)ethyl]-4,6,9-triazatricyclo[6.4.0.0^[2,6]]dodeca-1(8),2,4,9,11-pentaene] |
| > 1 µM | OC(CC1c2ncncc2-c2cncn21)C1CCCCC1 (single isomer, unassigned) [Compound 67c, 1-cyclohexyl-2-[4,6,9,11-tetraazatricyclo[6.4.0.0^[2,6]]dodeca-1(8),2,4,9,11-pentaen-7-yl]ethan-1-ol] |
| 0.1 to 1 µM | c1cnc2c(c1)-c1cncn1C2CCC1CCCCC1 (centres unmarked) [Compound 50, 7-(2-cyclohexylethyl)-4,6,9-triazatricyclo[6.4.0.0^[2,6]]dodeca-1(8),2,4,9,11-pentaene] |
| 0.1 to 1 µM | FC(CC1c2ncccc2-c2cncn21)C1CCCCC1 (single isomer, unassigned) [Compound 97c, 7-[2-cyclohexyl-2-fluoroethyl]-4,6,9-triazatricyclo[6.4.0.0^[2,6]]dodeca-1(8),2,4,9,11-pentaene] |
| 0.1 to 1 µM | OC(CC1c2nc(Cl)ccc2-c2cncn21)C1CCC(F)(F)CC1 (single isomer, unassigned) [Compound 52a, 2-[10-chloro-4,6,9-triazatricyclo[6.4.0.0^[2,6]]dodeca-1(8),2,4,9,11-pentaen-7-yl]-1-(4,4-difluorocyclohexyl)ethan-1-ol] |
| 0.1 to 1 µM | Fc1ccc(F)c2c1-c1cncn1C2CCC1(F)CCCCC1 (single isomer, unassigned) [Compound 37b, 6,9-difluoro-5-(2-(1-fluorocyclohexyl)ethyl)-5H-imidazo[5,1-a]isoindole] |
| < 0.1 µM | CN(C)C(=O)C1CCC(F)(CCC2c3c(Cl)cccc3-c3cncn32)CC1 (single isomer, unassigned) [Compound 114a, 4-[2-[6-chloro-5H-imidazo[4,3-a]isoindol-5-yl]ethyl]-4-fluoro-N,N-dimethylcyclohexane-1-carboxamide] |
| > 1 µM | OC(CC1c2nc(C3CC3)ccc2-c2cncn21)C1CCC(F)(F)CC1 (centres unmarked) [Compound 57a, 2-[10-cyclopropyl-4,6,9-triazatricyclo[6.4.0.0^[2,6]]dodeca-1(8),2,4,9,11-pentaen-7-yl]-1-(4,4-difluorocyclohexyl)ethan-1-ol] |
| > 1 µM | COc1ccc2c(n1)C(CC(O)C1CCC(C)(C)CC1)n1cncc1-2 (single isomer, unassigned) [Compound 40a, 1-(4,4-dimethylcyclohexyl)-2-[10-methoxy-4,6,9-triazatricyclo[6.4.0.0^[2,6]]dodeca-1(8),2,4,9,11-pentaen-7-yl]ethan-1-ol] |
| < 0.1 µM | Fc1cccc2c1C(CC(F)C1CCCCC1)n1cncc1-2 (single isomer, unassigned) [Compound 98b, 5-[2-cyclohexyl-2-fluoroethyl]-6-fluoro-5H-imidazo[4,3-a]isoindole] |
| > 1 µM | FC(CC1c2ncccc2-c2cncn21)C1CCCCC1 (single isomer, unassigned) [Compound 97d, 7-[2-cyclohexyl-2-fluoroethyl]-4,6,9-triazatricyclo[6.4.0.0^[2,6]]dodeca-1(8),2,4,9,11-pentaene] |
| > 1 µM | COc1cc2c(cn1)-c1cncn1C2CC(O)C1CCCCC1 (centres unmarked) [Compound 11b, 1-cyclohexyl-2-[10-methoxy-4,6,11-triazatricyclo[6.4.0.0^[2,6]]dodeca-1(8),2,4,9,11-pentaen-7-yl]ethan-1-ol] |
| > 1 µM | OC(CC1c2ncccc2-c2cncn21)C1CCOCC1 (single isomer, unassigned) [Compound 92c, 1-(oxan-4-yl)-2-[4,6,9-triazatricyclo[6.4.0.0^[2,6]]dodeca-1(8),2,4,9,11-pentaen-7-yl]ethan-1-ol] |
| > 1 µM | OC(CC1c2ncccc2-c2cncn21)C1(F)CCC(F)(F)CC1 (single isomer, unassigned) [Compound 87c, 2-[4,6,9-triazatricyclo[6.4.0.0^[2,6]]dodeca-1(8),2,4,9,11-pentaen-7-yl]-1-(1,4,4-trifluorocyclohexyl)ethan-1-ol] |
| < 0.1 µM | NC(=O)CC1CCC(F)(CCC2c3c(Cl)cccc3-c3cncn32)CC1 (single isomer, unassigned) [Compound 113d, 2-[4-[2-[6-chloro-5H-imidazo[4,3-a]isoindol-5-yl]ethyl]-4-fluorocyclohexyl]acetamide] |

| IC50 | SMILES |
| --- | --- |
| > 1 µM | CC1(C)CCC(C(O)CC2c3nc(F)ccc3-c3cncn32)CC1 (single isomer, unassigned) [Compound 25c, 1-(4,4-dimethylcyclohexyl)-2-[10-fluoro-4,6,9-triazatricyclo[6.4.0.0^[2,6]]dodeca-1(8),2,4,9,11-pentaen-7-yl]ethan-1-ol] |
| > 1 µM | OC1CCC(F)(CCC2c3c(Cl)cccc3-c3cncn32)CC1 (single isomer, unassigned) [Compound 71c, 4-[2-[6-chloro-5H-imidazo[4,3-a]isoindol-5-yl]ethyl]-4-fluorocyclohexan-1-ol] |
| > 1 µM | OC(CC1c2c(Cl)cccc2-c2cncn21)C1(F)CCCCC1 (single isomer, unassigned) [Compound 83a, 2-[6-chloro-5H-imidazo[4,3-a]isoindol-5-yl]-1-(1-fluorocyclohexyl)ethan-1-ol] |
| < 0.1 µM | FC1(CCC2c3ccccc3-c3cncn32)CCOCC1 (single isomer, unassigned) [Compound 94b, 5-[2-(4-fluorooxan-4-yl)ethyl]-5H-imidazo[4,3-a]isoindole] |
| > 1 µM | FC1(CCC2c3ncccc3-c3cncn32)CCOCC1 (single isomer, unassigned) [Compound 93a, 7-[2-(4-fluorooxan-4-yl)ethyl]-4,6,9-triazatricyclo[6.4.0.0^[2,6]]dodeca-1(8),2,4,9,11-pentaene] |
| 0.1 to 1 µM | CN(C)C(=O)C1CCC(F)(CCC2c3c(F)cccc3-c3cncn32)CC1 (centres unmarked) [Compound 111b, 4-fluoro-4-(2-[6-fluoro-5H-imidazo[4,3-a]isoindol-5-yl]ethyl)-N,N-dimethylcyclohexane-1-carboxamide] |
| > 1 µM | OC(CC1c2ncccc2-c2cncn21)C1(F)CCC(F)(F)CC1 (single isomer, unassigned) [Compound 87b, 2-[4,6,9-triazatricyclo[6.4.0.0^[2,6]]dodeca-1(8),2,4,9,11-pentaen-7-yl]-1-(1,4,4-trifluorocyclohexyl)ethan-1-ol] |
| 0.1 to 1 µM | FC1(F)CCC(CCC2c3ncccc3-c3cncn32)CC1 (centres unmarked) [Compound 49, 7-[2-(4,4-difluorocyclohexyl)ethyl]-4,6,9-triazatricyclo[6.4.0.0^[2,6]]dodeca-1(8),2,4,9,11-pentaene] |
| < 0.1 µM | OCC1CCC(F)(CCC2c3c(Cl)cccc3-c3cncn32)CC1 (single isomer, unassigned) [Compound 105c, [4-[2-[6-chloro-5H-imidazo[4,3-a]isoindol-5-yl]ethyl]-4-fluorocyclohexyl]methanol] |
| 0.1 to 1 µM | OC(CC1c2nc(C3CC3)ccc2-c2cncn21)C1CCC(F)(F)CC1 (single isomer, unassigned) [Compound 57b, 2-[10-cyclopropyl-4,6,9-triazatricyclo[6.4.0.0^[2,6]]dodeca-1(8),2,4,9,11-pentaen-7-yl]-1-(4,4-difluorocyclohexyl)ethan-1-ol] |
| > 1 µM | OC(CC1c2ncccc2-c2cncn21)C1CCC(F)(F)CC1 (single isomer, unassigned) [Compound 22b, 1-(4,4-difluorocyclohexyl)-2-[4,6,9-triazatricyclo[6.4.0.0^[2,6]]dodeca-1(8),2,4,9,11-pentaen-7-yl]ethan-1-ol] |
| > 1 µM | OC1CCC(CCC2c3ncccc3-c3cncn32)CC1 (centres unmarked) [Compound 47, 4-(2-[4,6,9-triazatricyclo[6.4.0.0^[2,6]]dodeca-1(8),2,4,9,11-pentaen-7-yl]ethyl)cyclohexan-1-ol] |
| 0.1 to 1 µM | OC(CC1c2nc(Cl)ccc2-c2cncn21)C1CCC(F)(F)CC1 (centres unmarked) [Compound 52b, 2-[10-chloro-4,6,9-triazatricyclo[6.4.0.0^[2,6]]dodeca-1(8),2,4,9,11-pentaen-7-yl]-1-(4,4-difluorocyclohexyl)ethan-1-ol] |
| > 1 µM | OC1CCC(F)(CCC2c3cc(F)ncc3-c3cncn32)CC1 (single isomer, unassigned) [Compound 58c, 4-fluoro-4-[2-[10-fluoro-4,6,11-triazatricyclo[6.4.0.0^[2,6]]dodeca-1(8),2,4,9,11-pentaen-7-yl]ethyl]cyclohexan-1-ol] |
| > 1 µM | OC1(C2CCC(F)(CCC3c4ccccc4-c4cncn43)CC2)CC1 (single isomer, unassigned) [Compound 60c, 1-[4-fluoro-4-[2-[5H-imidazo[4,3-a]isoindol-5-yl]ethyl]cyclohexyl]cyclopropan-1-ol] |
| 0.1 to 1 µM | Fc1cccc2c1C(CCC1(F)CCOCC1)n1cncc1-2 (single isomer, unassigned) [Compound 95b, 6-fluoro-5-[2-(4-fluorooxan-4-yl)ethyl]-5H-imidazo[4,3-a]isoindole] |
